From patent publication US20230192799A1, “CNP Variants and Conjugates Thereof” (BIOMARIN PHARMACEUTICAL INC., priority 2019, published 2023)
Numbered stars: 1 amine (or outer) side, 2 acyl side, 3 side chain; on linkers, the order of the positions; unused ones are H or OH. Bridge positions count the residues as written; N and C are the ends. Side chains are listed from the residue outwards. Peptide text beside a SMILES is read from it. * marks the point of attachment. ξ: configuration not given here. C18 diacid = O=C(O)CCCCCCCCCCCCCCCCC(=O)*; ξγGlu = O=C(O)C(CCC(=O)[*:2])N[*:1]; AEEA = NCCOCCOCC(=O)O

Legend:
[1] = Stability of CNP variants by RP-HPLC, 10 days in PBS; assay type: physicochemical; settings: for T0, % (% variant detected at T0): T0 (0 days); for T10, % (% variant detected at T10): T10 (10 days) in PBS, pH 7.4, at 37° C.
[2] = Stability of CNP variants or conjugates in human plasma (LC-MS/MS); assay type: in vitro ADME
Procedure: Stability of different CNP variants or CNP conjugates were tested for stability in human plasma over a 24 hour period. Briefly, a C18 fatty acid was fused to gamma glutamic acid using 2 OEG spacers (see e.g., Lau et al., J. Med. Chem 58:7370-7380, 2015). For the chromatography, Waters UPLC H-Class connected with BEH C18 1.7 um, 2.1×150 mm; Mobile Phase A: 1% DMSO 0.1% Formic Acid in Water; Mobile Phase B: 1% DMSO 0.1% Formic Acid in CAN. Mass Spectrometry was carried out using an AB Sciex QTRAP.
each CNP variant was prepared at 200 nM in Human Plasma Li Heparin and samples Incubated at 37° C. 5% CO2. The reaction was quenched at 0, 1, 2, 4, 8, 24 hours with 0.5M Sodium Citrate pH 4. Plasma proteins were precipitated with 0.2% Formic Acid in MeOH and samples prepared using WCX 96-well uElution plate and analyzed by LC-MS/MS 6500.
Stability of different conjugates was also analyzed at varying conditions. Briefly, the same protocol as above was used at 37° C. (control), 37° C.+0.5M NaCl, 37° C.+protease inhibitors or 4° C.

[3] = system: cGMP production in NIH3T3 cells and HEK293 cells; assay: cGMP stimulation assay (CatchPoint Cyclic-GMP Fluorescent Assay); assay type: cell-based; settings: peptide at T0, 7-point dose curve 100 nM to 0.0064 nM
[4] = system: NPR2+/− rat chondrosarcoma cell model (heterozygous NPR2 knockout cells); assay: cGMP stimulation assay in NPR2 mutant RCS cells; assay type: cell-based
Procedure: To determine the effects of CNP on subjects with short stature resulting from NPR2 mutations, cellular models of NPR2 mutations were developed. […] Rat chondrosarcoma (RCS) cells having either a knockout of, or heterozygous loss of function mutations in, the NPR2 gene were made by RNP transfection into RCS cells using 125 ng NPR2 variants or wild-type NPR2 plasmid DNA transfected into RCS or HEK293 cells. Single cell clones were seeded and genotyped by Sanger sequencing.
The NPR2 clones were created by creating insertions and deletions in the first exon of NPR2 in RCS cells. […] NPR2 mutant cells were tested for activity in response to CNP administration by a cGMP stimulation assay using a Catch Point Cyclic-GMP Fluorescent Assay after treatment with 6 nM of Pro-Gly CNP37. RCS (rat chondrosarcoma) cells were seeded at 40,000 cells/well in RCS culture media: DMEM+10% FBS+1× Pen Strep.

[5] = system: mice deficient in Nf1 in type II collagen producing cells; settings: daily injections; cited from earlier work
[6] = system: mouse model of Cardiofaciocutaneous syndrome using a Braf mutation (p.Q241R); settings: in vivo; cited from earlier work

PGQEHPNARKYKGANKKGLSKGCFGLKLDRIGSMSGLGC [CNP-5]
T0, % (% variant detected at T0) [1]: 83% | T10, % (% variant detected at T10) [1]: 47%

PGQEHPNARRYRGANRRGLSRGCFGLKLDRIGSMSGLGC [CNP-7]
T0, % (% variant detected at T0) [1]: 77% | T10, % (% variant detected at T10) [1]: 53%

PGQEHPNARRYRGANRRGLSRGCFGLKLDRIGSMSGLGC [CNP-6]
T0, % (% variant detected at T0) [1]: 90% | T10, % (% variant detected at T10) [1]: 58%

CC[C@H](C)[C@@H]1NC(=O)[C@H](CCCNC(=N)N)NC(=O)[C@H](CC(=O)O)NC(=O)[C@H](CC(C)C)NC(=O)[C@H](CCCCNC(=O)COCCOCCNC(=O)COCCOCCNC(=O)CCC(NC(=O)CCCCCCCCCCCCCCCCC(=O)O)C(=O)O)NC(=O)[C@H](CC(C)C)NC(=O)CNC(=O)[C@H](Cc2ccccc2)NC(=O)[C@@H](NC(=O)CNC(=O)[C@H](CCCNC(=N)N)NC(=O)[C@H](CO)NC(=O)[C@H](CC(C)C)NC(=O)CNC(=O)[C@H](CCCNC(=N)N)NC(=O)[C@H](CCCNC(=N)N)NC(=O)[C@H](CCC(N)=O)NC(=O)[C@H](C)NC(=O)CNC(=O)[C@H](CCCNC(=N)N)NC(=O)[C@H](Cc2ccc(O)cc2)NC(=O)[C@H](CCCNC(=N)N)NC(=O)[C@H](CCCNC(=N)N)NC(=O)[C@H](C)NC(=O)[C@H](CCC(N)=O)NC(=O)[C@@H]2CCCN2C(=O)[C@H](Cc2c[nH]cn2)NC(=O)[C@H](CCC(=O)O)NC(=O)[C@H](CCC(N)=O)NC(=O)CNC(=O)[C@@H]2CCCN2C(C)=O)CSSC[C@@H](C(=O)O)NC(=O)CNC(=O)[C@H](CC(C)C)NC(=O)CNC(=O)[C@H](CO)NC(=O)[C@H](CCSC)NC(=O)[C@H](CO)NC(=O)CNC1=O (stereo partly drawn) [lipidated conjugate] (Ac-PGQEHPQARRYRGAQRRGLSRGCFGLK([AEEA-AEEA-ξγGlu-C18 diacid])LDRIGSMSGLGC-OH; disulfide 23-39)
stability in plasma ([2]; human plasma, 200 nM, 37° C., over 24 hrs (FIG. 2)): improved stability in plasma compared to PEGylated or non-conjugated peptides

CC[C@H](C)[C@@H]1NC(=O)[C@H](CCCNC(=N)N)NC(=O)[C@H](CC(=O)O)NC(=O)[C@H](CC(C)C)NC(=O)[C@H](CCCCN)NC(=O)[C@H](CC(C)C)NC(=O)CNC(=O)[C@H](Cc2ccccc2)NC(=O)[C@@H](NC(=O)CNC(=O)[C@H](CCCCN)NC(=O)[C@H](CO)NC(=O)[C@H](CC(C)C)NC(=O)CNC(=O)[C@H](CCCCN)NC(=O)[C@H](CCCCN)NC(=O)[C@H](CC(N)=O)NC(=O)[C@H](C)NC(=O)CNC(=O)[C@H](CCCCN)NC(=O)[C@H](Cc2ccc(O)cc2)NC(=O)[C@H](CCCCN)NC(=O)[C@H](CCCNC(=N)N)NC(=O)[C@H](C)NC(=O)[C@H](CC(N)=O)NC(=O)[C@@H]2CCCN2C(=O)[C@H](Cc2c[nH]cn2)NC(=O)[C@H](CCC(=O)O)NC(=O)[C@H](CCC(N)=O)NC(=O)CNC(=O)[C@@H]2CCCN2)CSSC[C@@H](C(=O)O)NC(=O)CNC(=O)[C@H](CC(C)C)NC(=O)CNC(=O)[C@H](CO)NC(=O)[C@H](CCSC)NC(=O)[C@H](CO)NC(=O)CNC1=O [Pro-Gly CNP37]
T0, % (% variant detected at T0) [1]: 76.7% | T10, % (% variant detected at T10) [1]: 39.5% | EC50 [3]: 1.7 nM | stability in human plasma at varying conditions ([2]; 37° C. (control), 37° C.+0.5M NaCl, 37° C.+protease inhibitors or 4° C. (FIG. 3)): greater stability compared to other variants | proteolysis in human plasma ([2]; human plasma, varying conditions (FIG. 3)): prone to proteolysis | cGMP readout ([4]; NPR2+/− rat chondrosarcoma cells, 6 nM of peptide (FIG. 4)): rescues cGMP readout

PGQEHPQARRYRGAQRRGLSRGCFGLKLDRIGSMSGLGC [CNP-9]
T0, % (% variant detected at T0) [1]: 92% | T10, % (% variant detected at T10) [1]: 77%

C-type natriuretic peptide [CNP]
rescue of NPR2 signaling ([4]; cell model of NPR2 haploinsufficiency, exogenous CNP): dose-dependent rescue | ERK phosphorylation [5]: decreased ERK phosphorylation | short stature [5]: corrected the short stature | body length [6]: increases in body length

PGQEHPQARRYRGAQRRGLSRGCFGLKLDRIGSMSGLGC [CNP-8]
T0, % (% variant detected at T0) [1]: 91% | T10, % (% variant detected at T10) [1]: 88%
